Measurements taken from patent publication US20220372040A1, “METTL3 MODULATORS” (Accent Therapeutics, Inc., priority 2020, published 2022).
Where two headings read alike, the source gives them in different places.

Assays:
METTL3/METTL14 = METTL3/METTL14 (Homo sapiens, UniProt Q86U44); assay: METTL3-14 standard enzyme assay (3H-SAM flashplate scintillation); format: biochemical; settings: METTL3/METTL14 2.5 nM, RNA 100 nM, 3H-SAM 100 nM, 30 min
Outline: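 Radiometric methylation readout: biotinylated RNA substrate UCUGGACUAAA and 3H-SAM, each 100 nM final, reacted 30 min at ambient temperature with 2.5 nM enzyme complex after 5 min compound preincubation (HEPES pH 7.5 buffer, KCl, MgCl2, DTT). Excess unlabelled SAM (15 μM) stopped reactions before streptavidin flashplate capture.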

PRMT5-MEP50 = PRMT5-MEP50 (Homo sapiens, UniProt O14744); assay: PRMT5 assay (3H-SAM flashplate scintillation); format: biochemical; settings: PRMT5-MEP50 2.5 nM, histone H4 peptide 100 nM, 3H-SAM 250 nM, 60 min
Sequence of PRMT5-MEP50 (O14744 whole entry): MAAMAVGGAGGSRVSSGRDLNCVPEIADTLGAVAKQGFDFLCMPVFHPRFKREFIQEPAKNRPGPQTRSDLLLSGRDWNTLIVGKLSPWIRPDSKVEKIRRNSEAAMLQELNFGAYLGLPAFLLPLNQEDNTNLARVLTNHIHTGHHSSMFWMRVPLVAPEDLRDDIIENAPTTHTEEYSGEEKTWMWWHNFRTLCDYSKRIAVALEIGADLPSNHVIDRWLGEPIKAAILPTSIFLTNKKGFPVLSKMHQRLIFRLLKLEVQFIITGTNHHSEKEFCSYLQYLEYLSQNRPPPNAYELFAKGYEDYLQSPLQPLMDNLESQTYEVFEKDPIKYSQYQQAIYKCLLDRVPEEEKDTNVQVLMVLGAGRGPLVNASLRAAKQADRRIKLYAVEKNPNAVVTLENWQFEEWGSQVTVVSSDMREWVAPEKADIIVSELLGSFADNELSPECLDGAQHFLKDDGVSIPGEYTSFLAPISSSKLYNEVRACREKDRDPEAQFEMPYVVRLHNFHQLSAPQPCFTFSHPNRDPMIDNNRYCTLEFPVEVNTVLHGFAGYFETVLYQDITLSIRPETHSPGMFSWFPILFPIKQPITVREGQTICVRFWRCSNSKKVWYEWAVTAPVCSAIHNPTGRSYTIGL
Sequence of PRMT5-MEP50 (Q9BQA1 whole entry partner): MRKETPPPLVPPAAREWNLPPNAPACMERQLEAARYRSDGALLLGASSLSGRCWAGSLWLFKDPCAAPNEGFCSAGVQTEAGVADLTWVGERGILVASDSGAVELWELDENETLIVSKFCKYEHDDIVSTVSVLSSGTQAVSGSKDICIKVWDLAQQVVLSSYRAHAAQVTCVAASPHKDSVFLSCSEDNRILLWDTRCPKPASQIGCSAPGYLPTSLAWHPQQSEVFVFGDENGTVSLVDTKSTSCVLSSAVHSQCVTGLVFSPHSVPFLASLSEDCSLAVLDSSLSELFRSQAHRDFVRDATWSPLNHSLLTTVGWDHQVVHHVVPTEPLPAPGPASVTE
Outline: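 Radiometric methyltransferase read-out: after 60 min reaction, excess unlabelled SAM (15 μM) stops turnover and biotinylated H4 peptide (100 nM) carrying 3H-methyl from 250 nM 3H-SAM is captured on streptavidin flashplates (2 h, 25° C) for scintillation counting. Enzyme, 2.5 nM PRMT5-MEP50, was preincubated 5 min with compound in pH 8.0 Tris buffer with DTT and Tween.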

METTL1/WDR4 = METTL1/WDR4 (Homo sapiens, UniProt Q9UBP6); assay: METTL1 assay (3H-SAM flashplate scintillation); format: biochemical
Sequence of METTL1/WDR4 (Q9UBP6 whole entry, species assumed): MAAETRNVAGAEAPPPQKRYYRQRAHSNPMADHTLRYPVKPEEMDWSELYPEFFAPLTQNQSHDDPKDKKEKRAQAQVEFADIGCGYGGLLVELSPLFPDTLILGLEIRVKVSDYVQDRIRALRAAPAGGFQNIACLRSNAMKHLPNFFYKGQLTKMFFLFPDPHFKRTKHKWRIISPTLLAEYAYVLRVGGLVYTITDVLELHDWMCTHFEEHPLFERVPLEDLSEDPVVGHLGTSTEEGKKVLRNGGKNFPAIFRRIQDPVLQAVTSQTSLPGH
Sequence of METTL1/WDR4 (P57081 whole entry partner, species assumed): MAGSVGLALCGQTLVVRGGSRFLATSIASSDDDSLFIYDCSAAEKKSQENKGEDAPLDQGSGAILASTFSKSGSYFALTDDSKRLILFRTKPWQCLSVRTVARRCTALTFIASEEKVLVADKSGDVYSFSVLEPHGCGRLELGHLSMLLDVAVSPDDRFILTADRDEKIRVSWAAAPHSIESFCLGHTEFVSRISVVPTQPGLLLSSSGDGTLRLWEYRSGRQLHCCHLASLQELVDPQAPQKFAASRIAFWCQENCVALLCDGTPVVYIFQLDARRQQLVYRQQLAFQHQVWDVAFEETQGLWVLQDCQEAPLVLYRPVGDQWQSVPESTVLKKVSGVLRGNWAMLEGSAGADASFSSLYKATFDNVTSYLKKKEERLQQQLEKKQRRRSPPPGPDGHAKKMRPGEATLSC
Outline: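 Radiometric methyltransfer by METTL1/WDR4 (6.25 nM f.c., 5 min preincubation) at ambient temperature in HEPES pH 7.5, KCl, MgCl2, DTT; started with 25 nM 3′-biotinylated RNA and 60 nM 3H-SAM, run 20 min, quenched with 15 μM cold SAM. Product captured on streptavidin flashplates (2 h, 25° C), counted by scintillation.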

[1] = system: m^6 A in cellular mRNA of MOLM-13 cells; assay: m^6 A-mRNA LC-MS/MS assay (m^6 A cellular assay); format: cell-based; settings: Homo sapiens, 24 hours incubation, LC-MS/MS of m^6 A/A in mRNA
Procedure: m^6 A-mRNA LC-MS/MS Assay
5×10^6 MOLM-13 (DSMZ) cells were seeded into 10 cm dishes in RPMI 1640 media containing 10% fetal bovine serum and placed in a humidified tissue culture incubator at 37° C. overnight. Compounds were resuspended in 100% DMSO and dosed into each dish at a fixed concentration to comprise an 8-point dose response with a 4-fold serial dilution ranging from 25 μM to 1.5 nM in 0.25% DMSO final and allowed to incubate for 24 hours in a humidified tissue culture incubator at 37° C. Cells were harvested by centrifugation followed by mRNA extraction using DTRECT Dynabeads mRNA DTRECT kit (Life Technologies). mRNA was quantified on NanoDrop spectrophotometer (Thermo Fisher Scientific) and digested into single nucleosides using Nucleoside Digestion Mix (New England Biolabs). Nucleosides are quantified with retention time on a BEH […] column (Waters) and the nucleoside-to-base ion mass transition of 282.1-150.1 (m^6 A) and 268-136 (A) on an API 6500+ triple quadrupole mass spectrometer. Quantification is performed in comparison with the standard curve, obtained from pure nucleoside standards (Selleck Chemicals) running with the same batch of samples. Percentage m^6 A in cellular mRNA is calculated as 100*(m^6 A/A).

MOLM-13 cells [2] = assay: MOLM-13 48 Hour cell proliferation assay (Cell Titer-Glo); format: cell-based; settings: Homo sapiens
Procedure: MOLM-13 48 Hour Cell Proliferation Assay
MOLM-13 (DSMZ) cells were seeded at 1000 cells per well in a volume of 44 μL in a Falcon 384-well tissue culture treated clear bottom microplate in RPMI 1640 media containing 10% fetal bovine serum using a Multidrop Combi (ThermoFisher Scientific). Cells were incubated overnight at 37° C. in a humidified tissue culture incubator. The Mosquito® HTS Liquid Handler was used to make a compound/media intermediate plate by aliquoting […] of compound from the initial compound dilution plate (concentrations ranging from 10.0 mM to 38.0 nM in 100% DMSO) into a V bottom 384-well screen matrix plate containing 49 µL of media containing the appropriate serum (50-fold dilution, 2% DMSO). The Apricot liquid handling system was used to transfer […] compounds from the intermediate plate into the Falcon 384-well tissue culture plate containing 44 μL cells (10-point, 4-fold dilution spanning concentrations 25.0 μM to […], 0.25% DMSO final), and placed in a humidified tissue culture incubator at 37° C. After 48 hours, 25 μL of Cell Titer-Glo reagent (Promega) was added to each well using a Multidrop Combi. The plate was protected from light and placed on an IKA plate shaker for at 300 rpm for 10 minutes at room temperature. The plate was read on an EnVision plate reader (Perkin Elmer) using the Ultra Sensitive Luminescence protocol. Data analysis was performed by normalizing the raw luminescence units to an average of the positive control values for staurosporine (100% cell death) and the negative control values for DMSO (0% cell death). An IC50 was calculated using a 4-parameter logistic nonlinear regression model in GraphPad Prism.

MOLM-13 cells [3] = assay: MOLM-13 96 Hour cell proliferation assay (Cell Titer-Glo); format: cell-based; settings: Homo sapiens
Outline: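 MOLM-13 cells were seeded at 600 cells/well in RPMI 1640 with 10% FBS, then incubated overnight. Compounds were added at 0.25% DMSO final for 96 h at 37° C, with CellTiter-Glo luminescence read-out. Values normalized to staurosporine (100% death) and DMSO (0%); IC50 from 4-parameter logistic fit.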

METTL16 = target: T1, METTL16 (Homo sapiens, UniProt Q86W50); assay: METTL16 assay (3H-SAM flashplate scintillation); format: biochemical; settings: METTL16 100 nM, RNA 50 nM, 3H-SAM 200 nM, SAM 800 nM, 20 min
T1 sequence (Q86W50 1-562): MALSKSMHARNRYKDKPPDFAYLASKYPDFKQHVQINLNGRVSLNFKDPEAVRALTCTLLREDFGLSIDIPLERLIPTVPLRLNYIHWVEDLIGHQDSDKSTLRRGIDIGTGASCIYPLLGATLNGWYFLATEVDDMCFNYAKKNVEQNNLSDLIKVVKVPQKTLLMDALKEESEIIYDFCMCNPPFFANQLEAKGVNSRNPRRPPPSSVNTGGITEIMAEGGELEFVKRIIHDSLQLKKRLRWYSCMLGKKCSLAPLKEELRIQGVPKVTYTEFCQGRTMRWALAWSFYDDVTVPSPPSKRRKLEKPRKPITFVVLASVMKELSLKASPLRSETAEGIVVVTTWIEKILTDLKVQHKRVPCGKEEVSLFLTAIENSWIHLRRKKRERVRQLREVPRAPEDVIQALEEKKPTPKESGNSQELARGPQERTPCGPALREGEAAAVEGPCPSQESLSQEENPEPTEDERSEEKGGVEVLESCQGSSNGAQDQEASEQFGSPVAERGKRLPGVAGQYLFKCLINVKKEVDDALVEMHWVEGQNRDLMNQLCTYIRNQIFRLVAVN
Outline: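 Radiometric methyltransferase reaction at ambient temperature in 20 mM HEPES pH 7.5, 50 mM KCl, 1 mM DTT, with 100 nM enzyme preincubated 5 min with compound. It was started with 50 nM 3′-biotinylated RNA, 200 nM 3H-SAM plus 800 nM cold SAM, run 20 min, then quenched with excess cold SAM. Product was captured on streptavidin flashplates and scintillation-counted.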

[4] = METTL1/WDR4 6.25 nM, RNA 25 nM, 3H-SAM 60 nM, 20 min, read-out: METTL1 IC50

Sequence of METTL3/METTL14 (Q86U44 whole entry, species assumed): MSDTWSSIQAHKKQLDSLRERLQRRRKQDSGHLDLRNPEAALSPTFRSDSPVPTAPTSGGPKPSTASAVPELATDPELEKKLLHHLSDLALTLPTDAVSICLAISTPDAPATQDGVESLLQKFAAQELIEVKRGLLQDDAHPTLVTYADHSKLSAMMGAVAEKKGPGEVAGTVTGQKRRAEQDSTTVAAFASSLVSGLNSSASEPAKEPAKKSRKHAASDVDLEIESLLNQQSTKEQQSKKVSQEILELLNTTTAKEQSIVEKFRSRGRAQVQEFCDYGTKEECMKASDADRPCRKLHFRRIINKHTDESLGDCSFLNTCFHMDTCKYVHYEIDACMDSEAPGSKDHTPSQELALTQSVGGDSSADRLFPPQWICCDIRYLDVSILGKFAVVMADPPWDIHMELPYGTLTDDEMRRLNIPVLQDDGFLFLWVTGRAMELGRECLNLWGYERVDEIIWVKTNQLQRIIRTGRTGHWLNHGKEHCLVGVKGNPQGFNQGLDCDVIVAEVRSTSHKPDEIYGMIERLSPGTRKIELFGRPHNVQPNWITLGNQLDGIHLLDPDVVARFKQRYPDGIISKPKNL
Sequence of METTL3/METTL14 (Q9HCE5 whole entry partner, species assumed): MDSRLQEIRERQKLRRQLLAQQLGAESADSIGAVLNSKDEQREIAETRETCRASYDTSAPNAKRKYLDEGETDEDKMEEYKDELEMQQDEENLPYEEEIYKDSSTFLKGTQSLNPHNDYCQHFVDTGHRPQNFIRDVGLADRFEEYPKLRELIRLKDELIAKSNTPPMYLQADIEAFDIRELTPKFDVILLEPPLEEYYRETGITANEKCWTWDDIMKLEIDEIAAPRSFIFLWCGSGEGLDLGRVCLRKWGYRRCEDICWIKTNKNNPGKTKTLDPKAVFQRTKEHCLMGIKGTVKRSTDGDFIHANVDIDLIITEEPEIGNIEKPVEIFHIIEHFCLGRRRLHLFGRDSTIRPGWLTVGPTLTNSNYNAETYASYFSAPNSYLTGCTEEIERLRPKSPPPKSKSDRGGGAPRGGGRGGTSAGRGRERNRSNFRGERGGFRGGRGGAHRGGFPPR

IC50 (METTL16)	Compound	IC50 (METTL3/METTL14)	IC50 (PRMT5-MEP50)	IC50 (METTL1/WDR4)	IC50 [1]	IC50 (MOLM-13 cells [2])	IC50 (METTL1/WDR4; [4])	IC50 (MOLM-13 cells [3])
	CNc1ccc2ccc(CCc3cncc(-n4cc(-c5ccn(C)n5)c5c(N)ncnc54)c3)cc2n1 [Compound I-1, 7-(2-(5-(4-amino-5-(1-methyl-1H-pyrazol-3-yl)-7H-pyrrolo[2,3-d]pyrimidin-7-yl)pyridin-3-yl)ethyl)-N-methylquinolin-2-amine]	< 0.01 µM	> 1 µM	> 1 µM	< 1 µM	< 1 µM		
	CNc1ccc2ccc(OCc3cc(CO)cc(-n4ccc5c(N)ncnc54)c3)cc2n1 [Compound I-6]	< 0.01 µM	> 1 µM			≥ 10 µM	> 1 µM	1 to 10 µM
	CCc1cc(NCCOC)c2ccc(OCc3cncc(-c4c[nH]c5c(N)ncnc45)c3)cc2n1 [Compound I-7]	< 0.01 µM	> 1 µM			≥ 10 µM	> 1 µM	
	CNc1ccc2ccc(OCc3cc(CO)cc(-c4c[nH]c5c(N)ncnc45)c3)cc2n1 [Compound I-10]	< 0.01 µM	> 1 µM		≥ 10 µM	≥ 10 µM	> 1 µM	
	CCc1cc(N)c2ccc(OCc3cncc(-n4cc(C5CCCC5)c5c(N)ncnc54)c3)cc2n1 [Compound I-11]	< 0.01 µM	> 1 µM		1 to 10 µM	< 1 µM	> 1 µM	
	CC(C)c1cc(N)c2ccc(OCc3cncc(-n4ccc5c(N)ncnc54)c3)cc2n1 [Compound I-12]	< 0.01 µM	> 1 µM			1 to 10 µM	> 1 µM	1 to 10 µM
	CNc1ccc2ccc(OCc3cncc(-n4ccc5c(N)ncnc54)n3)cc2n1 [Compound I-14]	< 0.01 µM	> 1 µM		1 to 10 µM	1 to 10 µM	> 1 µM	
	CCc1cc(NCCN(C)C)c2ccc(OCc3cncc(-n4ccc5c(N)ncnc54)c3)cc2n1 [Compound I-15]	< 0.01 µM	> 1 µM			1 to 10 µM	> 1 µM	
	CCc1cc(NCCOC)c2ccc(OCc3cncc(-n4ccc5c(N)ncnc54)c3)cc2n1 [Compound I-16]	< 0.01 µM	> 1 µM		1 to 10 µM	1 to 10 µM	> 1 µM	
	CNc1ccc2ccc(OCc3cncc(-n4cc(C)c5c(N)ncnc54)c3)cc2n1 [Compound I-17]	< 0.01 µM	> 1 µM		≥ 10 µM	< 1 µM	> 1 µM	
	CNc1ccc2ccc(OCc3cncc(-c4cn(C5CCCC5)c5c(N)ncnc45)c3)cc2n1 [Compound I-18]	< 0.01 µM	> 1 µM		1 to 10 µM	1 to 10 µM	> 1 µM	
> 1 µM	CNc1ccc2ccc(OCc3cncc(-c4c(C)[nH]c5c(N)ncnc45)c3)cc2n1 [Compound I-25]	< 0.01 µM	> 1 µM		≥ 10 µM	≥ 10 µM		
> 1 µM	Cc1cc(NCCN(C)C)c2ccc(OCc3cncc(-n4cc(Cl)c5c(N)ncnc54)c3)cc2n1 [Compound I-42]	0.01 to 0.1 µM	> 1 µM			< 1 µM		
> 1 µM	CCc1cc(N)c2ccc(OCc3cncc(-n4ccc5c(N)ncnc54)c3)cc2n1 [Compound I-45]	< 0.01 µM	> 1 µM		≥ 10 µM	≥ 10 µM		
> 1 µM	CNc1ccc2ccc(OCc3cncc(-c4c[nH]c5c(N)ncnc45)c3)cc2n1 [Compound I-47, 7-[(5-{4-amino-5H-pyrrolo[3,2-d]pyrimidin-7-yl}pyridin-3-yl)methoxy]-N-methylquinolin-2-amine]	< 0.01 µM	> 1 µM		≥ 10 µM	≥ 10 µM		
> 1 µM	CCNc1ccc2ccc(OCc3cncc(-n4cc(Cl)c5c(N)ncnc54)c3)cc2n1 [Compound I-59]	< 0.01 µM	> 1 µM		1 to 10 µM	1 to 10 µM		
> 1 µM	CNc1ccc2ccc(OCc3cncc(-n4ccc5c(N)ncnc54)c3)cc2n1 [Compound I-60]	< 0.01 µM	> 1 µM		1 to 10 µM	< 1 µM		
